Converted amounts (≈) assume the structure as drawn. Read-outs that look alike come from different tables or passages of the source. Blank lines part the entries; values can stand above or below the compound they belong to.
Experiments:
E. coli bacteria = test: Antimicrobial activity against E. coli (inhibition zone, MIC); assay type: cell-based; settings: in vitro
Aspergillus flavus fungi = test: Antifungal activity against Aspergillus flavus (inhibition zone, MIC); assay type: cell-based; settings: in vitro
breast cancer cell line [1] = test: In vitro anti-cancer activity against breast cancer cell line; assay type: cell-based, human
breast cancer cell line [2] = test: Antioxidant activity; assay type: cell-based; settings: printed as against a breast cancer cell line
[3] = listed as prepared nano complex

Compound: 4-Bromo-2-[(9H-purin-6-ylimino)-methyl]-phenol imine Pd(II) complex [prepared complex]
- MIC (E. coli bacteria; [3]): 1.00 µg/mL
- inhibition zone (E. coli bacteria; [3]): 40 mm
- MIC (E. coli bacteria; listed as present complex): about 1.0 μg/ml
- inhibition zone (E. coli bacteria; listed as present complex): about 40 mm
- MIC (Aspergillus flavus fungi): 1.50 µg/mL
- inhibition zone (Aspergillus flavus fungi): 30 mm
- MIC (Aspergillus flavus fungi; listed as present complex): about 1.50 μg/ml
- inhibition zone (Aspergillus flavus fungi; listed as present complex): about 30 mm
- IC50 (anticancer activity) (breast cancer cell line [1]): 2.2 µg/mL
- IC50 (antioxidant activity) (breast cancer cell line [2]): 7.5 µg/mL

Compound: O=C1O[C@H]([C@@H](O)CO)C(O)=C1O [1-ascorbic acid, reference compound]
- IC50 (antioxidant activity) (breast cancer cell line [2]): 45.7 µg/mL (≈ 259 µM)

Compound: OC(Cn1cncn1)(Cn1cncn1)c1ccc(F)cc1F [Fluconazol, reference compound]
- inhibition zone (Aspergillus flavus fungi): 24 mm
- MIC (Aspergillus flavus fungi; read-out: MIC): 2 µg/mL (≈ 6.53 µM)

Continued, in another order:

- MIC (E. coli bacteria; Escherichia coli, read-out: MIC): 2.5 µg/mL (≈ 6.92 µM)
Compound: CC1COc2c(N3CCN(C)CC3)c(F)cc3c(=O)c(C(=O)O)cn1c23 (stereo not shown) [Ofloxacin, reference compound]
- inhibition zone (E. coli bacteria): 35 mm

- IC50 (breast cancer cell line [1]; Homo sapiens, read-out: IC50 (anticancer activity)): 4.7 µg/mL (≈ 5.8 µM)
Compound: CC[C@]1(O)C[C@@H]2CN(CCc3c([nH]c4ccccc34)[C@@](C(=O)OC)(c3cc4c(cc3OC)N(C)[C@H]3[C@@](O)(C(=O)OC)[C@H](OC(C)=O)[C@]5(CC)C=CCN6CC[C@]43[C@@H]65)C2)C1 [vinblastine, reference compound]

From patent US11840547B1, “Nano-sized 4-Bromo-2-[(9H-purin-6-ylimino)-methyl]-phenol imine Pd(II) complex for superior pharmaceutical applications” (KING FAISAL UNIVERSITY, priority 2023, dated 2023)
